{"source": "patent US11912660B2", "about": "“S6K1 protein kinase inhibitors as cancer therapeutics” (Xavier University of Louisiana, priority 2020, dated 2024)", "experiment_in_all_cases": "SelectScreen kinase panel screening", "format_in_all_cases": "biochemical", "key": {"ALK": {"target": "ALK (Homo sapiens (Human), UniProt Q9UM73)", "description": "(§1) The complete list of the kinases given in Table 1 and their details can be found on the ThermoFisher website for Biochemical Kinase assays (thermofisher.com/us/en/home/industrial/pharma-biopharma/drug-discovery-development/target-and-lead-identification-and-validation/kinasebiology.html)."}, "AURKB (Aurora B)": {"target": "AURKB (Aurora B) (Homo sapiens (Human), UniProt Q96GD4)", "description": "as §1"}, "BRAF V599E": {"target": "BRAF V599E (Homo sapiens (Human), UniProt P15056, V600E)", "description": "as §1"}, "BTK": {"target": "BTK (Homo sapiens (Human), UniProt Q06187)", "sequence (Q06187 whole entry)": "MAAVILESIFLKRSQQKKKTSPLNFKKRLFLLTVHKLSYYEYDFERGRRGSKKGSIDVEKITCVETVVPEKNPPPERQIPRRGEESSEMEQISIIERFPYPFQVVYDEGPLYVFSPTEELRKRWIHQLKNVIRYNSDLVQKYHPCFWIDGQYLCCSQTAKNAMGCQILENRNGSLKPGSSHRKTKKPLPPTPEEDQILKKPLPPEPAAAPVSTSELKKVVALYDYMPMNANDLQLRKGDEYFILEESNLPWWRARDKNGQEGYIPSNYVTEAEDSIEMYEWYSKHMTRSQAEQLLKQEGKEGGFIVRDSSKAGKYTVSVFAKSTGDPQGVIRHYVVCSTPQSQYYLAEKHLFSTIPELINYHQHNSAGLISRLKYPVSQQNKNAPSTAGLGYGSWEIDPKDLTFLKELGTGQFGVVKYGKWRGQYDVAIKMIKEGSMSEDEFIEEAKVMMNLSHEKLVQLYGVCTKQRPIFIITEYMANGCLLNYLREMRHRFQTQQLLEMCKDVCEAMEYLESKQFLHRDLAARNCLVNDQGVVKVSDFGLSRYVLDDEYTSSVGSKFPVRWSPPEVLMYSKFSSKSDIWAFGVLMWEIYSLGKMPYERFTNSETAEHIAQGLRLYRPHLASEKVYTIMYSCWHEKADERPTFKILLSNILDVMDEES", "description": "as §1"}, "CDC42 BPB (MRCKB)": {"target": "CDC42 BPB (MRCKB) (Homo sapiens (Human), UniProt Q9Y5S2)", "description": "as §1"}, "CDK2/cyclin A": {"target": "CDK2/cyclin A (Homo sapiens (Human), UniProt P24941)", "description": "as §1"}, "CDK9/cyclin T1": {"target": "CDK9/cyclin T1 (Homo sapiens (Human), UniProt P50750)", "sequence (P50750 whole entry)": "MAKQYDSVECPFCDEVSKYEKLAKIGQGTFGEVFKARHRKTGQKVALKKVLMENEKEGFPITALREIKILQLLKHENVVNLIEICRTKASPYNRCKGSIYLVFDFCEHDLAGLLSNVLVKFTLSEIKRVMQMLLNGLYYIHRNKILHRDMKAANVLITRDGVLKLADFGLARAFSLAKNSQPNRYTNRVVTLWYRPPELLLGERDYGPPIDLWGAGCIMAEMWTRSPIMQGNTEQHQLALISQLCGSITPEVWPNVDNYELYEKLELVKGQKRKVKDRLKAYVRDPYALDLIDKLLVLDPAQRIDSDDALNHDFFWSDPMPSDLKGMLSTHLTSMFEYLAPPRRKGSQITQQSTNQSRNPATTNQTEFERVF", "sequence (O60563 whole entry partner)": "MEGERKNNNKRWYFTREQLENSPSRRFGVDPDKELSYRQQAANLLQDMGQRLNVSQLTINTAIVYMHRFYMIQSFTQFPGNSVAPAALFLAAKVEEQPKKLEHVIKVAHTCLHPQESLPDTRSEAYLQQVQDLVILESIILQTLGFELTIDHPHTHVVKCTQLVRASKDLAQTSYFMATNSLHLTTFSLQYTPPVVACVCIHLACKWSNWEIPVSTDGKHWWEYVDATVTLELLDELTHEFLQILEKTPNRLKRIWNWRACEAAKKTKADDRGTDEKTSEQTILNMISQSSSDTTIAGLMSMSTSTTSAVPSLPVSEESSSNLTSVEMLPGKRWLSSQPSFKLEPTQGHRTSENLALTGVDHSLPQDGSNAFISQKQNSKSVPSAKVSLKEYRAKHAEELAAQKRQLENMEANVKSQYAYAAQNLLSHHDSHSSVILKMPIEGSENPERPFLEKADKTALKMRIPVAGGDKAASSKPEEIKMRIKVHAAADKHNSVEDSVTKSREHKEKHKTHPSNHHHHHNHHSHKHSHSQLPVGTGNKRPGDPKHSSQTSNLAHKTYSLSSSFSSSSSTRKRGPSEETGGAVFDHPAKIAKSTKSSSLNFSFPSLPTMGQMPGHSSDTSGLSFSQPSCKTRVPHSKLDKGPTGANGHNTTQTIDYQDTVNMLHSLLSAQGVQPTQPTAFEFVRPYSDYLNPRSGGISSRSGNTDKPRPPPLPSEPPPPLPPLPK", "description": "as §1"}, "CHEK1 (CHK1)": {"target": "CHEK1 (CHK1) (Homo sapiens (Human), UniProt O14757)", "description": "as §1"}, "CSNK2A1 (CK2 alpha 1)": {"target": "CSNK2A1 (CK2 alpha 1) (Homo sapiens (Human), UniProt P68400)", "description": "as §1"}, "EPHB2": {"target": "EPHB2 (Homo sapiens (Human), UniProt P29323)", "description": "as §1"}, "EPHB4": {"target": "EPHB4 (Homo sapiens (Human), UniProt P54760)", "description": "as §1"}, "ERBB2 (HER2)": {"target": "ERBB2 (HER2) (Homo sapiens (Human), UniProt P04626)", "description": "as §1"}, "FGFR1": {"target": "FGFR1 (Homo sapiens (Human), UniProt P11362)", "description": "as §1"}, "FLT1 (VEGFR1)": {"target": "FLT1 (VEGFR1) (Homo sapiens (Human), UniProt P17948)", "description": "as §1"}, "FYN": {"target": "FYN (Homo sapiens (Human), UniProt P06241)", "description": "as §1"}, "GSG2 (Haspin)": {"target": "GSG2 (Haspin) (Homo sapiens (Human), UniProt Q8TF76)", "sequence (Q8TF76 whole entry)": "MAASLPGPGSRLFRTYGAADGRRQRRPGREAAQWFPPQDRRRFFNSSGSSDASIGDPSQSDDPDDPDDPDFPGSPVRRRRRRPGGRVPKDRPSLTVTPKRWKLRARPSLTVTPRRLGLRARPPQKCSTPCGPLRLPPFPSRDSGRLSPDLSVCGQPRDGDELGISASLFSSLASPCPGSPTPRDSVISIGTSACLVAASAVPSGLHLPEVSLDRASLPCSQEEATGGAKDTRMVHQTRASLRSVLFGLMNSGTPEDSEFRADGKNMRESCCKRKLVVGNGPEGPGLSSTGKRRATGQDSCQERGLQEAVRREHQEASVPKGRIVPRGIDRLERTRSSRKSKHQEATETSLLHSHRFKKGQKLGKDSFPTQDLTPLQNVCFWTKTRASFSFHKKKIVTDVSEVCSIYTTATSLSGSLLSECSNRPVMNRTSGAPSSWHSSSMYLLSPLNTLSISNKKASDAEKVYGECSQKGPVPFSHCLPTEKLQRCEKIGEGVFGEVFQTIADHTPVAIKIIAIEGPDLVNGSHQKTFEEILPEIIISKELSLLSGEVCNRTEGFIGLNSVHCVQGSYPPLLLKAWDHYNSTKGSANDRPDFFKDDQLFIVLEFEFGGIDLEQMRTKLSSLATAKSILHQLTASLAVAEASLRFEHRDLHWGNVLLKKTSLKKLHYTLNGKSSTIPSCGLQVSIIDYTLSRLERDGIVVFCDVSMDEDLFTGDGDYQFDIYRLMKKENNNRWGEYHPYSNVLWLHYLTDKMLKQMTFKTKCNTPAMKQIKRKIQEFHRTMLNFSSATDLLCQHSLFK", "description": "as §1"}, "IKBKB (IKK beta)": {"target": "IKBKB (IKK beta) (Homo sapiens (Human), UniProt O14920)", "description": "as §1"}, "JAK2 JH1 JH2": {"target": "JAK2 JH1 JH2 (Homo sapiens (Human), UniProt O60674)", "description": "as §1"}, "JAK2 JH1 JH2 V617F": {"target": "JAK2 JH1 JH2 V617F (Homo sapiens (Human), UniProt O60674, V617F)", "description": "as §1"}, "KDR (VEGFR2)": {"target": "KDR (VEGFR2) (Homo sapiens (Human), UniProt P35968)", "description": "as §1"}, "KIT": {"target": "KIT (Homo sapiens (Human), UniProt P10721)", "description": "as §1"}, "LYN A": {"target": "LYN A (Homo sapiens (Human), UniProt P07948)", "sequence (P07948 whole entry)": "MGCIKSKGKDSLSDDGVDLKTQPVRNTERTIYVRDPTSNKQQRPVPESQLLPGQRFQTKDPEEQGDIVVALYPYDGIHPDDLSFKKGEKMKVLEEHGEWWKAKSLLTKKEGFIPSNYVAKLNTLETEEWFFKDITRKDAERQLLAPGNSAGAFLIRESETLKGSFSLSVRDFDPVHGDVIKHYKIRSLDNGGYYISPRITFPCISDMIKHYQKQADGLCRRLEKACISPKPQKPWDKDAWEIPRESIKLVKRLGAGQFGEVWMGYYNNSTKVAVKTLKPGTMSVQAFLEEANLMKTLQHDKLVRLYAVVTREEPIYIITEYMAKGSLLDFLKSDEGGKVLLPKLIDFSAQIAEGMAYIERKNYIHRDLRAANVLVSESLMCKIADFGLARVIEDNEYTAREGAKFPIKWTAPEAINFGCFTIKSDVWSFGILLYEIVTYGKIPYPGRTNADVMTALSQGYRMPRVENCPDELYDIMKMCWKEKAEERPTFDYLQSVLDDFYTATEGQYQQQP", "description": "as §1"}, "MATK (HYL)": {"target": "MATK (HYL) (Homo sapiens (Human), UniProt P42679)", "description": "as §1"}, "PDGFRB (PDGFR beta)": {"target": "PDGFRB (PDGFR beta) (Homo sapiens (Human), UniProt P09619)", "description": "as §1"}, "PDK1 Direct": {"target": "PDK1 Direct (Homo sapiens (Human), UniProt O15530)", "sequence (O15530 whole entry)": "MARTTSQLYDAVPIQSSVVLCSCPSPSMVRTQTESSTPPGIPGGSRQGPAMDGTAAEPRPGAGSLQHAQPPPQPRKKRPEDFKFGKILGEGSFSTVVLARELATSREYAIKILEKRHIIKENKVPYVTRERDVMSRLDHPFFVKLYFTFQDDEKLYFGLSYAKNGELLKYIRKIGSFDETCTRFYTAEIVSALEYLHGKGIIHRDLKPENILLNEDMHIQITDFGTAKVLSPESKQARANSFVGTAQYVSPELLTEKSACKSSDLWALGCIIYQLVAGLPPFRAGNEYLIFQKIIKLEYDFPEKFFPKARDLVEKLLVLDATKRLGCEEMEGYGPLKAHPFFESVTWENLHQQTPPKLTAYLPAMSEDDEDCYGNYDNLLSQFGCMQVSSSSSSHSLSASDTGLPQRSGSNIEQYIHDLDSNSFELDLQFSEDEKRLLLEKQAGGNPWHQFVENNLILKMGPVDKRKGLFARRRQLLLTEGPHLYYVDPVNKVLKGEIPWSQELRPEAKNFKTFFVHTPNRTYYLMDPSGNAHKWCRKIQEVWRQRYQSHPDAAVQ", "description": "as §1"}, "PIK3CG (p110 gamma)": {"target": "PIK3CG (p110 gamma) (Homo sapiens (Human), UniProt P48736)", "sequence (P48736 whole entry)": "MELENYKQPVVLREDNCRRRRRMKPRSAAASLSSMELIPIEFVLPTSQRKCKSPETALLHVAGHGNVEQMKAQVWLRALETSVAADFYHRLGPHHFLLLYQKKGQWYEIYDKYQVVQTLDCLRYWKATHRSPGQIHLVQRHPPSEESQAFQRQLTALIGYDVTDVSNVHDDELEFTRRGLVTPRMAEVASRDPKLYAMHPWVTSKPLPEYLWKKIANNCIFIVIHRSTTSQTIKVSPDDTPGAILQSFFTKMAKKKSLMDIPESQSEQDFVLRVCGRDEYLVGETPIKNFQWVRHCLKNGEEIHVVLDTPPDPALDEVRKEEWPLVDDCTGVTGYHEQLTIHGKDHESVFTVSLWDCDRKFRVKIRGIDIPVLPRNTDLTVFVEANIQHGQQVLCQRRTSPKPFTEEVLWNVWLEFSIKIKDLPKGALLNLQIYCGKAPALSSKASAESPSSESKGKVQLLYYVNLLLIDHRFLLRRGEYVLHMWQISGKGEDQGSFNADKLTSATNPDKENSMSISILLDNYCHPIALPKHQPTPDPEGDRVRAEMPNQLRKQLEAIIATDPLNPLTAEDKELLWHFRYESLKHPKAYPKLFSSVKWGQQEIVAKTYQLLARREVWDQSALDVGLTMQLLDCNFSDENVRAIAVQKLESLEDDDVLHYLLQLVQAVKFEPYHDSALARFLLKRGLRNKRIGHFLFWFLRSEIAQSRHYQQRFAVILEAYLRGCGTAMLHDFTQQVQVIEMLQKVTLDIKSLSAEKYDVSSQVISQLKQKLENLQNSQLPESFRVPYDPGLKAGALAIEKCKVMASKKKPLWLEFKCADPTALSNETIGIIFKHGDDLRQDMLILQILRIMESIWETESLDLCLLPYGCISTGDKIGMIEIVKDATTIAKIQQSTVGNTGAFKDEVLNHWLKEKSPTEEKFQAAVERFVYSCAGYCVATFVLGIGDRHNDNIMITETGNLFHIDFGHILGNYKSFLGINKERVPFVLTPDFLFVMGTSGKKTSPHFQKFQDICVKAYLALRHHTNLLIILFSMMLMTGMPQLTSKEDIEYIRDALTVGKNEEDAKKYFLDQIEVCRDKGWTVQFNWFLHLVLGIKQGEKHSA", "description": "as §1"}, "ROCK1": {"target": "ROCK1 (Homo sapiens (Human), UniProt Q13464)", "description": "as §1"}, "SGK (SGK1)": {"target": "SGK (SGK1) (Homo sapiens (Human), UniProt O00141)", "description": "as §1"}, "TBK1": {"target": "TBK1 (Homo sapiens (Human), UniProt Q9UHD2)", "description": "as §1"}, "TEK (Tie2)": {"target": "TEK (Tie2) (Homo sapiens (Human), UniProt Q02763)", "description": "as §1"}, "YES1": {"target": "YES1 (Homo sapiens (Human), UniProt P07947)", "description": "as §1"}}, "note": "Where “and” joins values, the source holds several entries; their conditions need not be identical. Equal values may be shown once. Read-outs that look alike come from different tables or passages of the source.", "data": [{"smiles": "Nc1cc(N)c2c(c1)C(=O)NC2=O", "note": "[RJ1, 4,6-diaminoisoindoline-1,3-dione]", "values": [{"measurement": "inhibition at 10 µM", "setting": "ALK; read-out: % Inhibition", "value": 32, "unit": "%"}, {"measurement": "inhibition at 10 µM", "setting": "ALK; read-out: % Inhibition class", "value": "< 40", "unit": "%"}, {"measurement": "inhibition at 10 µM", "setting": "AURKB (Aurora B); read-out: % Inhibition", "value": 63, "unit": "%"}, {"measurement": "inhibition at 10 µM", "setting": "AURKB (Aurora B); read-out: % Inhibition class", "value": "40 to 80", "unit": "%"}, {"measurement": "inhibition at 10 µM", "setting": "BRAF V599E; read-out: % Inhibition", "value": 22, "unit": "%"}, {"measurement": "inhibition at 10 µM", "setting": "BRAF V599E; read-out: % Inhibition class", "value": "< 40", "unit": "%"}, {"measurement": "inhibition at 10 µM", "setting": "BTK; read-out: % Inhibition", "value": 43, "unit": "%"}, {"measurement": "inhibition at 10 µM", "setting": "BTK; read-out: % Inhibition class", "value": "40 to 80", "unit": "%"}, {"measurement": "inhibition at 10 µM", "setting": "CDC42 BPB (MRCKB); read-out: % Inhibition", "value": 0, "unit": "%"}, {"measurement": "inhibition at 10 µM", "setting": "CDC42 BPB (MRCKB); read-out: % Inhibition class", "value": "< 40", "unit": "%"}, {"measurement": "inhibition at 10 µM", "setting": "CDK2/cyclin A; read-out: % Inhibition", "value": 9, "unit": "%"}, {"measurement": "inhibition at 10 µM", "setting": "CDK2/cyclin A; read-out: % Inhibition class", "value": "< 40", "unit": "%"}, {"measurement": "% Inhibition", "setting": "CDK9/cyclin T1; 10 μM", "value": 16, "unit": "%"}, {"measurement": "inhibition at 10 µM", "setting": "CDK9/cyclin T1; read-out: % Inhibition", "value": 10, "unit": "%"}, {"measurement": "inhibition at 10 µM", "setting": "CDK9/cyclin T1; read-out: % Inhibition class", "value": "< 40", "unit": "%"}, {"measurement": "inhibition at 10 µM", "setting": "CHEK1 (CHK1); read-out: % Inhibition", "value": 72, "unit": "%"}, {"measurement": "inhibition at 10 µM", "setting": "CHEK1 (CHK1); read-out: % Inhibition class", "value": "40 to 80", "unit": "%"}, {"measurement": "inhibition at 10 µM", "setting": "CSNK2A1 (CK2 alpha 1); read-out: % Inhibition", "value": 5, "unit": "%"}, {"measurement": "inhibition at 10 µM", "setting": "CSNK2A1 (CK2 alpha 1); read-out: % Inhibition class", "value": "< 40", "unit": "%"}, {"measurement": "inhibition at 10 µM", "setting": "EPHB2; read-out: % Inhibition", "value": 10, "unit": "%"}, {"measurement": "inhibition at 10 µM", "setting": "EPHB2; read-out: % Inhibition class", "value": "< 40", "unit": "%"}, {"measurement": "inhibition at 10 µM", "setting": "EPHB4; read-out: % Inhibition", "value": 9, "unit": "%"}, {"measurement": "inhibition at 10 µM", "setting": "EPHB4; read-out: % Inhibition class", "value": "< 40", "unit": "%"}, {"measurement": "inhibition at 10 µM", "setting": "ERBB2 (HER2); read-out: % Inhibition", "value": 6, "unit": "%"}, {"measurement": "inhibition at 10 µM", "setting": "ERBB2 (HER2); read-out: % Inhibition class", "value": "< 40", "unit": "%"}, {"measurement": "inhibition at 10 µM", "setting": "FGFR1; read-out: % Inhibition", "value": 51, "unit": "%"}, {"measurement": "inhibition at 10 µM", "setting": "FGFR1; read-out: % Inhibition class", "value": "40 to 80", "unit": "%"}, {"measurement": "inhibition at 10 µM", "setting": "FLT1 (VEGFR1); read-out: % Inhibition", "value": 18, "unit": "%"}, {"measurement": "inhibition at 10 µM", "setting": "FLT1 (VEGFR1); read-out: % Inhibition class", "value": "< 40", "unit": "%"}, {"measurement": "inhibition at 10 µM", "setting": "FYN; read-out: % Inhibition", "value": 17, "unit": "%"}, {"measurement": "inhibition at 10 µM", "setting": "FYN; read-out: % Inhibition class", "value": "< 40", "unit": "%"}, {"measurement": "% Inhibition", "setting": "GSG2 (Haspin); 10 μM", "value": "34% and 65%"}, {"measurement": "inhibition at 10 µM", "setting": "GSG2 (Haspin); read-out: % Inhibition class", "value": "< 40", "unit": "%"}, {"measurement": "inhibition at 10 µM", "setting": "IKBKB (IKK beta); read-out: % Inhibition", "value": 16, "unit": "%"}, {"measurement": "inhibition at 10 µM", "setting": "IKBKB (IKK beta); read-out: % Inhibition class", "value": "< 40", "unit": "%"}, {"measurement": "inhibition at 10 µM", "setting": "JAK2 JH1 JH2; read-out: % Inhibition", "value": 15, "unit": "%"}, {"measurement": "inhibition at 10 µM", "setting": "JAK2 JH1 JH2; read-out: % Inhibition class", "value": "< 40", "unit": "%"}, {"measurement": "inhibition at 10 µM", "setting": "JAK2 JH1 JH2 V617F; read-out: % Inhibition", "value": 6, "unit": "%"}, {"measurement": "inhibition at 10 µM", "setting": "JAK2 JH1 JH2 V617F; read-out: % Inhibition class", "value": "< 40", "unit": "%"}, {"measurement": "inhibition at 10 µM", "setting": "KDR (VEGFR2); read-out: % Inhibition", "value": 56, "unit": "%"}, {"measurement": "inhibition at 10 µM", "setting": "KDR (VEGFR2); read-out: % Inhibition class", "value": "40 to 80", "unit": "%"}, {"measurement": "inhibition at 10 µM", "setting": "KIT; read-out: % Inhibition", "value": 7, "unit": "%"}, {"measurement": "inhibition at 10 µM", "setting": "KIT; read-out: % Inhibition class", "value": "< 40", "unit": "%"}, {"measurement": "inhibition at 10 µM", "setting": "LYN A; read-out: % Inhibition", "value": 12, "unit": "%"}, {"measurement": "inhibition at 10 µM", "setting": "LYN A; read-out: % Inhibition class", "value": "< 40", "unit": "%"}, {"measurement": "inhibition at 10 µM", "setting": "MATK (HYL); read-out: % Inhibition", "value": -5, "unit": "%"}, {"measurement": "inhibition at 10 µM", "setting": "MATK (HYL); read-out: % Inhibition class", "value": "< 40", "unit": "%"}, {"measurement": "inhibition at 10 µM", "setting": "PDGFRB (PDGFR beta); read-out: % Inhibition", "value": 5, "unit": "%"}, {"measurement": "inhibition at 10 µM", "setting": "PDGFRB (PDGFR beta); read-out: % Inhibition class", "value": "< 40", "unit": "%"}, {"measurement": "inhibition at 10 µM", "setting": "PDK1 Direct; read-out: % Inhibition", "value": 33, "unit": "%"}, {"measurement": "inhibition at 10 µM", "setting": "PDK1 Direct; read-out: % Inhibition class", "value": "< 40", "unit": "%"}, {"measurement": "% Inhibition", "setting": "PIK3CG (p110 gamma); 10 μM", "value": 11, "unit": "%"}, {"measurement": "inhibition at 10 µM", "setting": "PIK3CG (p110 gamma); read-out: % Inhibition", "value": 12, "unit": "%"}, {"measurement": "inhibition at 10 µM", "setting": "PIK3CG (p110 gamma); read-out: % Inhibition class", "value": "< 40", "unit": "%"}, {"measurement": "inhibition at 10 µM", "setting": "ROCK1; read-out: % Inhibition", "value": 21, "unit": "%"}, {"measurement": "inhibition at 10 µM", "setting": "ROCK1; read-out: % Inhibition class", "value": "< 40", "unit": "%"}, {"measurement": "inhibition at 10 µM", "setting": "SGK (SGK1); read-out: % Inhibition", "value": 50, "unit": "%"}, {"measurement": "inhibition at 10 µM", "setting": "SGK (SGK1); read-out: % Inhibition class", "value": "40 to 80", "unit": "%"}, {"measurement": "inhibition at 10 µM", "setting": "TBK1; read-out: % Inhibition", "value": 18, "unit": "%"}, {"measurement": "inhibition at 10 µM", "setting": "TBK1; read-out: % Inhibition class", "value": "< 40", "unit": "%"}, {"measurement": "inhibition at 10 µM", "setting": "TEK (Tie2); read-out: % Inhibition", "value": 20, "unit": "%"}, {"measurement": "inhibition at 10 µM", "setting": "TEK (Tie2); read-out: % Inhibition class", "value": "< 40", "unit": "%"}, {"measurement": "inhibition at 10 µM", "setting": "YES1; read-out: % Inhibition", "value": 24, "unit": "%"}, {"measurement": "inhibition at 10 µM", "setting": "YES1; read-out: % Inhibition class", "value": "< 40", "unit": "%"}]}]}
